This is an account of results in patent publication US7956039B2, “Use of amygdalin analogues for the treatment of psoriasis” (Universitat Politècnica De Catalunya, priority 2004, dated 2011).

For one assay, the system named is Blood mononuclear cells. The experiment in a line: Monocyte chemotaxis assay in modified Boyden chamber. The following applies: for −log[A] (concentration of maximum chemotactic index): concentration [A] at which the maximum chemotactic index occurs; for Chemotactic index (maximum value): ratio of migration distance towards attractant to distance towards buffer, tested 10^−12 to 10^−7 mol/L. Format: cell-based, human. How it is done:
Activity of Compounds (I) in Monocyte Chemotaxis Assays
Blood mononuclear cells were isolated from heparinized blood of human volunteers by Ficoll sedimentation. Chemotaxis was measured in a modified Boyden chamber using a Millipore […] that divided the upper and lower compartments. Mononuclear cells (0.5×10^6) in Krebs-Ringer phosphate (KRP) buffer were placed into the upper wells. Compounds (I) were dissolved in DMSO at 10^−2 mol/L, diluted with KRP buffer containing 1 mg/mL of bovine serum albumin and tested in the bottom compartment at a final concentration ranging from 10^−12 to 10^−7 mol/L. For an accurate comparison, the results of the different analogues were expressed as chemotactic index, which is the ratio of the distance of migration towards tested attractant and the distance towards the buffer. Migration in the presence of buffer was only […] (mean±SEM). Maximum migration for CHO-Met-Leu-Phe-OH (FMLP) occurred at 10^−8 mol/L and was […] in these experiments (chemotactic index 1.94±0.03). CD4 receptor binding for the test analogues was confirmed by blocking their chemotactic effects using low concentrations (0.1-0.2 mg/mL) of OKT4, a specific monoclonal antibody for CD4 molecules. In this test, migration response was not influenced by OKT4.

Another assay concerns monocytes. Particulars: cited from earlier work.

For the compound `O=C(O)[C@H](O[C@@H]1O[C@H](CO[C@@H]2O[C@H](CO)[C@@H](O)[C@H](O)[C@H]2O)[C@@H](O)[C@H](O)[C@H]1O)c1ccccc1` [Compound (I-6), (2R) (6-O-(β-D-glucopyranosyl)-β-D-glucopyranosyloxy)-phenylacetic acid], in the assay with Blood mononuclear cells, the “−log[A] (concentration of maximum chemotactic index)” value stood at 9 and the “Chemotactic index (maximum value)” value was found to be 0.85.
Take `COc1ccc(CO[C@@H]2O[C@H](CO[C@@H]3O[C@H](CO)[C@@H](O)[C@H](O)[C@H]3O)[C@@H](O)[C@H](O)[C@H]2O)cc1` [Compound (I-1), 4-methoxybenzyl 6-O-(β-D-glucopyranosyl)-β-D-Glucopyranoside]: in the assay on Blood mononuclear cells, the “−log[A] (concentration of maximum chemotactic index)” value was determined as 10 and the “Chemotactic index (maximum value)” value is given as 0.87.
Turning to `OC[C@H]1O[C@@H](OC[C@H]2O[C@@H](OCCc3ccccc3)[C@H](O)[C@@H](O)[C@@H]2O)[C@H](O)[C@@H](O)[C@@H]1O` [Compound (I-17), 2-phenylethyl 6-O-(β-D-glucopyranosyl)-β-D-glucopyranoside], in the assay on Blood mononuclear cells, the “−log[A] (concentration of maximum chemotactic index)” value was 9 and the “Chemotactic index (maximum value)” value was found to be 0.70.
For `CCC(O[C@@H]1O[C@H](CO[C@@H]2O[C@H](CO)[C@@H](O)[C@H](O)[C@H]2O)[C@@H](O)[C@H](O)[C@H]1O)c1ccccc1` (mixture of isomers) [Compound (I-4), (1 RS)-1-phenylpropyl 6-O-(β-D-glucopyranosyl)-β-D-glucopyranoside], in that order: 6 and 0.75.
Regarding “CHO-Met-Leu-Phe-OH [FMLP, reference compound]”, the “Concentration of maximum migration” value with Blood mononuclear cells is on record as 10^−8 mol/L. The compound also displayed a Chemotactic index with Blood mononuclear cells (at maximum migration, 10^−8 mol/L) of 1.94±0.03.
In the case of `C#CC(O[C@@H]1O[C@H](CO[C@@H]2O[C@H](CO)[C@@H](O)[C@H](O)[C@H]2O)[C@@H](O)[C@H](O)[C@H]1O)c1ccccc1` (stereo partly drawn) [Compound (I-8), (1 RS) 1-phenyl-2-propynyl-6-O-(β-D-Glucopyranosyl)-β-D-glucopyranoside], in the assay with Blood mononuclear cells, the “−log[A] (concentration of maximum chemotactic index)” value amounted to 6 and the “Chemotactic index (maximum value)” value is 0.79.
For `CC(O[C@@H]1O[C@H](CO[C@@H]2O[C@H](CO)[C@@H](O)[C@H](O)[C@H]2O)[C@@H](O)[C@H](O)[C@H]1O)c1ccccc1` (stereo partly drawn) [Compound (I-3), (1 RS)-1-phenylethyl-6-O-(β-D-glucopyranosyl)-β-D-glucopyranoside] the same measures were 8 and 0.77.
For `OC[C@H]1O[C@@H](OC[C@H]2O[C@@H](OCc3ccccc3Cl)[C@H](O)[C@@H](O)[C@@H]2O)[C@H](O)[C@@H](O)[C@@H]1O` [Compound (I-10), 2-chlorobenzyl 6-O-(β-D-gluconyranosyl)-β-D-Glucopyranoside], in that order: 10 and 0.94.
For `CC(C)(C)C(O[C@@H]1O[C@H](CO[C@@H]2O[C@H](CO)[C@@H](O)[C@H](O)[C@H]2O)[C@@H](O)[C@H](O)[C@H]1O)c1ccccc1` (mixture of isomers) [Compound (I-5), (1RS) 1-phenyl-2,2-dimethylpropyl-6-O-(β-D-glucopyranosyl)-β-D-glucopyranoside], in the assay with Blood mononuclear cells, the “−log[A] (concentration of maximum chemotactic index)” value is reported as 9 and the “Chemotactic index (maximum value)” value is given as 0.84.
In the case of `NC(=O)[C@H](O[C@@H]1O[C@H](CO[C@@H]2O[C@H](CO)[C@@H](O)[C@H](O)[C@H]2O)[C@@H](O)[C@H](O)[C@H]1O)c1ccccc1` [Compound (I-7)], in the assay with Blood mononuclear cells, the “−log[A] (concentration of maximum chemotactic index)” value is 7 and the “Chemotactic index (maximum value)” value is reported as 0.84.
As for `N#C[C@H](O[C@@H]1O[C@H](CO[C@@H]2O[C@H](CO)[C@@H](O)[C@H](O)[C@H]2O)[C@@H](O)[C@H](O)[C@H]1O)c1ccccc1` [Amygdalin, amygdalin], in the assay on Blood mononuclear cells, the “−log[A] (concentration of maximum chemotactic index)” value was 10 and the “Chemotactic index (maximum value)” value amounted to 0.63. Also, the “Chemotactic profile compared with peptide T” value with monocytes is listed as “chemotactic profile similar to that of peptide T”.
For the compound `OC[C@H]1O[C@@H](OC[C@H]2O[C@@H](OCc3ccccc3)[C@H](O)[C@@H](O)[C@@H]2O)[C@H](O)[C@@H](O)[C@@H]1O` [Compound (I-2), benzyl 6-O-(β-D-glucopyranosyl)4-D-glycopyranoside], in the assay with Blood mononuclear cells, the “−log[A] (concentration of maximum chemotactic index)” value is recorded as 8 and the “Chemotactic index (maximum value)” value stood at 0.76.
In the case of `COc1ccc(CO[C@@H]2O[C@H](CO[C@@H]3O[C@H](CO)[C@@H](O)[C@H](O)[C@H]3O)[C@@H](O)[C@H](O)[C@H]2O)c(OC)c1` [Compound (I-11), 2.4-dimethoxybenzyl 6-O-(β-D-glucopyranosyl)-β-D-glucopyranoside], in the assay with Blood mononuclear cells, the “−log[A] (concentration of maximum chemotactic index)” value turned out to be 10 and the “Chemotactic index (maximum value)” value is reported as 0.84.
